The results in this text go back to US9328122B2, “7-substituted Hanfangichin B derivative, and preparation method and use thereof” (HANGZHOU BENSHENG PHARMACEUTICAL CO., LTD., priority 2012, dated 2016).

In brackets after ≈: the same amount, converted by molar mass.

One assay relates to RKO (human colon adenocarcinoma) cells. The experiment in a line: MTT cell growth inhibition, solid tumor cells. The following applies: Homo sapiens; RKO, 72 h, MTT; read-out: IC90. Type of assay: cell-based. The source says: (§1) Hep-2 (laryngeal carcinoma), A549 (human lung cancer), CaES-17 (esophageal cancer cell), PC-3 (prostate cancer), CNE (nasopharyngeal carcinoma cell) and SK-OV-3 (ovarian cancer cell), all of which were purchased from China Center For Type Culture Collection; RKO (human colon adenocarcinoma cell), MGC-803 (human gastric cancer cell), MG-63 (osteosarcoma), and U87-MG (malignant glioma cell), all of which were purchased from Fuxiang Bio-tech Co. Ltd., Shanghai, China; PANC-1 (pancreatic cancer), Becap37 (human breast cancer cell), Hela (human cervical cancer cell) and Hep G2 (human liver cancer cell), all of which were donated by Cancer Research Institute of Zhejiang University, China.
(§2) 6000 well-growing human solid tumor cells were obtained and inoculated into wells of a 96-well cell culture plate. The culture medium was DMEM High Glucose cell culture medium containing 10% fetal bovine serum. The plate was placed in a carbon dioxide cell incubator (5% CO2) at 37° C. and incubated for 24 hours. After added with 7-substituted fangchinoline derivatives of different concentration and mixing uniformly, the plate was placed in a carbon dioxide cell incubator (5% CO2) at 37° C. and incubated for 72 hours. Then the viable cell concentration was determined by the MTT method.
Consider `COc1ccc2cc1Oc1ccc(cc1)C[C@H]1c3cc(c(OC)cc3CCN1C)Oc1c(OS(=O)(=O)c3ccc(C)cc3)c(OC)cc3c1[C@H](C2)N(C)CC3` [BS-FC-102], for which the concentration for an effect of 90% (IC90) – broadly, the concentration needed for an effect of 90% – amounted to 2.33 µg/mL (≈ 3.05 µM).

The subject of a further assay is Hela (human cervical cancer) cells. The experiment in a line: MTT cell growth inhibition, solid tumor cells. Type of assay: cell-based. The following applies: Homo sapiens; Hela, 72 h, MTT; read-out: IC50.
Description: as §1, §2
With `COc1ccc2cc1Oc1ccc(cc1)C[C@H]1c3cc(c(OC)cc3CCN1C)Oc1c(OS(=O)(=O)c3ccc(C)cc3)c(OC)cc3c1[C@H](C2)N(C)CC3` [BS-FC-102], the IC50 (in general, the concentration needed to halve the response being measured) is 1.44 µg/mL (≈ 1.89 µM).

Still in this assay, the particulars now being: Homo sapiens; Hela, 72 h, MTT; read-out: IC90.
Take `COc1ccc2cc1Oc1ccc(cc1)C[C@H]1c3cc(c(OC)cc3CCN1C)Oc1c(OS(=O)(=O)c3ccc(C)cc3)c(OC)cc3c1[C@H](C2)N(C)CC3` [BS-FC-102]: the IC90 amounted to 3.39 µg/mL (≈ 4.44 µM).

A further assay concerns MG-63 (osteosarcoma) cells. Nature of the assay: MTT cell growth inhibition, solid tumor cells. The format is cell-based. The following applies: Homo sapiens; MG-63, 72 h, MTT; read-out: IC50.
Description: as §1, §2
As for `COc1ccc2cc1Oc1ccc(cc1)C[C@H]1c3cc(c(OC)cc3CCN1C)Oc1c(OS(=O)(=O)c3ccc(C)cc3)c(OC)cc3c1[C@H](C2)N(C)CC3` [BS-FC-102], the half-inhibitory concentration (IC50) was determined as 3.18 µg/mL (≈ 4.17 µM).

The assay is the same for the next values; noted with them: Homo sapiens; MG-63, 72 h, MTT; read-out: IC90.
`COc1ccc2cc1Oc1ccc(cc1)C[C@H]1c3cc(c(OC)cc3CCN1C)Oc1c(OS(=O)(=O)c3ccc(C)cc3)c(OC)cc3c1[C@H](C2)N(C)CC3` [BS-FC-102]: the concentration for an effect of 90% (IC90) was determined as 4.83 µg/mL (≈ 6.33 µM).

In a further assay the test system is RPMI 8226 (multiple myeloma) cells. Nature of the assay: MTT cell growth inhibition, multiple myeloma cells. Type of assay: cell-based, human. The following applies: Homo sapiens; RPMI 8226, 72 h, MTT; read-out: IC50. How it is done:
Myeloma cell lines: RPMI8226 (multiple myeloma), purchased from Fuxiang Bio-tech Co. Ltd., Shanghai, China.
6000 well-growing cells were obtained and inoculated into wells of a 96-well cell culture plate. The culture medium was a RPMI-1640 cell culture medium containing 10% fetal bovine serum. After adding the 7-substituted fangchinoline derivatives of different concentrations the next day and mixing uniformly, the plate was placed in a carbon dioxide cell incubator (5% CO2) at 37° C. and incubated for 72 hours. Then the viable cell concentration was determined by the MTT method.
As for `COc1ccc2cc1Oc1ccc(cc1)C[C@H]1c3cc(c(OC)cc3CCN1C)Oc1c(OS(=O)(=O)c3ccc(C)cc3)c(OC)cc3c1[C@H](C2)N(C)CC3` [BS-FC-102], the IC50 was 0.14 µg/mL (≈ 0.184 µM).

Staying with this assay, now noted: Homo sapiens; RPMI 8226, 72 h, MTT; read-out: IC90.
For `COc1ccc2cc1Oc1ccc(cc1)C[C@H]1c3cc(c(OC)cc3CCN1C)Oc1c(OS(=O)(=O)c3ccc(C)cc3)c(OC)cc3c1[C@H](C2)N(C)CC3` [BS-FC-102], the 90% effect concentration (IC90) was 0.77 µg/mL (≈ 1.01 µM).

Another assay concerns tumor. The experiment in a line: Antitumor activity compared with fangchinoline, overall statement. The format is cell-based. The conditions noted are these: tumor type not specified.
`COc1ccc2cc1Oc1ccc(cc1)C[C@H]1c3cc(c(OC)cc3CCN1C)Oc1c(OS(=O)(=O)c3ccc(C)cc3)c(OC)cc3c1[C@H](C2)N(C)CC3` [BS-FC-102]: the “antitumor activity compared with that of fangchinoline” value is “significantly superior”.

The next assay concerns CNE (nasopharyngeal carcinoma) cells. The experiment in a line: MTT cell growth inhibition, solid tumor cells. The conditions noted are these: Homo sapiens; CNE, 72 h, MTT; read-out: IC50. The format is cell-based, human.
Description: as §1, §2
With `COc1ccc2cc1Oc1ccc(cc1)C[C@H]1c3cc(c(OC)cc3CCN1C)Oc1c(OS(=O)(=O)c3ccc(C)cc3)c(OC)cc3c1[C@H](C2)N(C)CC3` [BS-FC-102], the half-inhibitory concentration (IC50) came out at 3.5 µg/mL (≈ 4.59 µM).

Still in this assay, the particulars now being: Homo sapiens; CNE, 72 h, MTT; read-out: IC90.
Regarding `COc1ccc2cc1Oc1ccc(cc1)C[C@H]1c3cc(c(OC)cc3CCN1C)Oc1c(OS(=O)(=O)c3ccc(C)cc3)c(OC)cc3c1[C@H](C2)N(C)CC3` [BS-FC-102], the IC90 worked out at 6.9 µg/mL (≈ 9.04 µM).

A further assay concerns SK-OV-3 (ovarian cancer) cells. Nature of the assay: MTT cell growth inhibition, solid tumor cells. The format is cell-based, human. The following applies: Homo sapiens; SK-OV-3, 72 h, MTT; read-out: IC50.
Description: as §1, §2
Turning to `COc1ccc2cc1Oc1ccc(cc1)C[C@H]1c3cc(c(OC)cc3CCN1C)Oc1c(OS(=O)(=O)c3ccc(C)cc3)c(OC)cc3c1[C@H](C2)N(C)CC3` [BS-FC-102], the half-maximal inhibitory concentration (IC50) turned out to be 1.92 µg/mL (≈ 2.52 µM).

The assay is the same for the next values; noted with them: Homo sapiens; SK-OV-3, 72 h, MTT; read-out: IC90.
For `COc1ccc2cc1Oc1ccc(cc1)C[C@H]1c3cc(c(OC)cc3CCN1C)Oc1c(OS(=O)(=O)c3ccc(C)cc3)c(OC)cc3c1[C@H](C2)N(C)CC3` [BS-FC-102], the IC90 is 8.07 µg/mL (≈ 10.6 µM).

In another assay the test system is PC-3 (prostate cancer) cells. Nature of the assay: MTT cell growth inhibition, solid tumor cells. The format is cell-based, human. The following applies: Homo sapiens; PC-3, 72 h, MTT; read-out: IC50.
Description: as §1, §2
On to `COc1ccc2cc1Oc1ccc(cc1)C[C@H]1c3cc(c(OC)cc3CCN1C)Oc1c(OS(=O)(=O)c3ccc(C)cc3)c(OC)cc3c1[C@H](C2)N(C)CC3` [BS-FC-102], for which the IC50 was 3.17 µg/mL (≈ 4.16 µM).

Staying with this assay, now noted: Homo sapiens; PC-3, 72 h, MTT; read-out: IC90.
For the molecule `COc1ccc2cc1Oc1ccc(cc1)C[C@H]1c3cc(c(OC)cc3CCN1C)Oc1c(OS(=O)(=O)c3ccc(C)cc3)c(OC)cc3c1[C@H](C2)N(C)CC3` [BS-FC-102], the IC90 was determined as 5.85 µg/mL (≈ 7.67 µM).

The next assay relates to CaEs-17 (esophageal cancer) cells. Nature of the assay: MTT cell growth inhibition, solid tumor cells. The conditions noted are these: Homo sapiens, CaEs17; CaEs-17, 72 h, MTT; read-out: IC50. The format is cell-based, human.
Description: as §1, §2
In the case of `COc1ccc2cc1Oc1ccc(cc1)C[C@H]1c3cc(c(OC)cc3CCN1C)Oc1c(OS(=O)(=O)c3ccc(C)cc3)c(OC)cc3c1[C@H](C2)N(C)CC3` [BS-FC-102], the IC50 worked out at 2.47 µg/mL (≈ 3.24 µM).

Staying with this assay, now noted: Homo sapiens, CaEs17; CaEs-17, 72 h, MTT; read-out: IC90.
As to `COc1ccc2cc1Oc1ccc(cc1)C[C@H]1c3cc(c(OC)cc3CCN1C)Oc1c(OS(=O)(=O)c3ccc(C)cc3)c(OC)cc3c1[C@H](C2)N(C)CC3` [BS-FC-102], the IC90 turned out to be 7.91 µg/mL (≈ 10.4 µM).

For a further assay, the system named is PANC-1 (pancreatic cancer) cells. Nature of the assay: MTT cell growth inhibition, solid tumor cells. Type of assay: cell-based, human. The conditions noted are these: Homo sapiens; PANC-1, 72 h, MTT; read-out: IC50.
Description: as §1, §2
As to `COc1ccc2cc1Oc1ccc(cc1)C[C@H]1c3cc(c(OC)cc3CCN1C)Oc1c(OS(=O)(=O)c3ccc(C)cc3)c(OC)cc3c1[C@H](C2)N(C)CC3` [BS-FC-102], the IC50 is 3.16 µg/mL (≈ 4.14 µM).

Still in this assay, the particulars now being: Homo sapiens; PANC-1, 72 h, MTT; read-out: IC90.
For the molecule `COc1ccc2cc1Oc1ccc(cc1)C[C@H]1c3cc(c(OC)cc3CCN1C)Oc1c(OS(=O)(=O)c3ccc(C)cc3)c(OC)cc3c1[C@H](C2)N(C)CC3` [BS-FC-102], the IC90 is 6.75 µg/mL (≈ 8.85 µM).
